In patent US9499492B2, “4-(ortho)-fluorophenyl-5-fluoropyrimidin-2-yl amines containing a sulfoximine group” (BAYER PHARMA AKTIENGESELLSCHAFT, priority 2012, dated 2016):
pIC50: −log10 of the molar value. Like-named read-outs stand apart in the source and are kept apart here.

Experiments:
[1] = biological target: CDK2/CycE (Homo sapiens (Human), UniProt P24941); assay: CDK2/CycE kinase assay (Method 2); type: biochemical; conditions: 10 μM ATP
[2] = test system: HeLa, human cervical tumour cells; assay: Proliferation assay, HeLa (Method 3); type: cell-based; conditions: 4 days, crystal violet, read-out: Inhibition of HeLa cell proliferation IC50
Outline: (§1)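 Cells grew 24 h, then were exposed to compound at 0.001–10 μM (0.5% final DMSO) for 4 days. Proliferation was read by crystal violet staining after glutaraldehyde fixation, with absorbance at 595 nm. Values were normalized to a zero-point plate (0%) and untreated cells (100%).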

[3] = biological target: CDK9/CycT1 (Homo sapiens (Human), UniProt P50750); assay: CDK9/CycT1 kinase assay (Method 1a); type: biochemical; conditions: for pIC50: 10 μM ATP; for Selectivity CDK9/CDK2: derived from Methods 1a. and 2.
CDK9/CycT1, sequence (P50750 whole entry): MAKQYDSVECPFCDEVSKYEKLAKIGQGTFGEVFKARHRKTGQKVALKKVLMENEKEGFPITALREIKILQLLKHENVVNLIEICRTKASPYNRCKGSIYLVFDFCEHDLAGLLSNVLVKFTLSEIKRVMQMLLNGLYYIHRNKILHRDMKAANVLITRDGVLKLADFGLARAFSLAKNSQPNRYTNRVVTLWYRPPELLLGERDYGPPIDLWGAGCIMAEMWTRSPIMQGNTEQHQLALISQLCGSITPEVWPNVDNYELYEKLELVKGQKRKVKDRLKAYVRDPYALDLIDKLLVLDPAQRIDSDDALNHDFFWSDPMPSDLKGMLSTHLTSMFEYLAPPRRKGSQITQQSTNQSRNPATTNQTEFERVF
CDK9/CycT1, sequence (O60563 whole entry partner): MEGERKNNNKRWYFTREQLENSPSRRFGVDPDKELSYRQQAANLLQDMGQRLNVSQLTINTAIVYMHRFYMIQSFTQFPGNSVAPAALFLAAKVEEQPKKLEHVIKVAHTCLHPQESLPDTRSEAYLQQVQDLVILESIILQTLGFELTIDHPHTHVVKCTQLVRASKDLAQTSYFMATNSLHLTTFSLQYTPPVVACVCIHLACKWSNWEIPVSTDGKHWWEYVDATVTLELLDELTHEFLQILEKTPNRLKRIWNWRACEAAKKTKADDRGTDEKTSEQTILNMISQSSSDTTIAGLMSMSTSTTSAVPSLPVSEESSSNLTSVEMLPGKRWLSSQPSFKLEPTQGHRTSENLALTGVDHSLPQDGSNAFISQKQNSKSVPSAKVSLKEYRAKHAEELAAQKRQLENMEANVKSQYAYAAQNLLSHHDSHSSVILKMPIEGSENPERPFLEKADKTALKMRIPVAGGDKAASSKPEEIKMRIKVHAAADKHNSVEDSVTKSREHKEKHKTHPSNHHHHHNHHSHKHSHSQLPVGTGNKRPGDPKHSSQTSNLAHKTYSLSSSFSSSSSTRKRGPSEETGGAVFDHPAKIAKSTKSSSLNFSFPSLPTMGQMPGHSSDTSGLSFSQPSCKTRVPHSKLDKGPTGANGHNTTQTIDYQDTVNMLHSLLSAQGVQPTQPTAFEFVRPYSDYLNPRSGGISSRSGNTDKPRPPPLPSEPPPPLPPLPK

[4] = test system: A2780, human ovarian carcinoma cells; assay: Proliferation assay, A2780 (Method 3); type: cell-based; conditions: A2780, 4 days, crystal violet, read-out: Inhibition of A2780 cell proliferation IC50
Outline: as §1

[5] = test system: NCI-H460, human non-small cell lung carcinoma cells; assay: Proliferation assay, NCI-H460 (Method 3); type: cell-based; conditions: NCI-H460, 4 days, crystal violet, read-out: Inhibition of H460 cell proliferation IC50
Method: (§2) After 24 hours, the cells of one plate (zero-point plate) were stained with crystal violet (see below), while the medium of the other plates was replaced by fresh culture medium (200 μl), to which the test substances were added in various concentrations (0 μM, as well as in the range of 0.001-10 μM; the final concentration of the solvent dimethyl sulfoxide was 0.5%). The cells were incubated for 4 days in the presence of test substances. Cell proliferation was determined by staining the cells with crystal violet: the cells were fixed by adding 20 μl/measuring point of an 11% glutaric aldehyde solution for 15 minutes at room temperature. After three washing cycles of the fixed cells with water, the plates were dried at room temperature. The cells were stained by adding 100 μl/measuring point of a 0.1% crystal violet solution (pH 3.0). After three washing cycles of the stained cells with water, the plates were dried at room temperature. The dye was dissolved by adding 100 μl/measuring point of a 10% acetic acid solution. The extinction was determined by photometry at a wavelength of 595 nm. The change of cell number, in percent, was calculated by normalization of the measured values to the extinction values of the zero-point plate (=0%) and the extinction of the untreated (0 μm) cells (=100%).

[6] = test system: DU 145, hormone-independent human prostate carcinoma cells; assay: Proliferation assay, DU 145 (Method 3); type: cell-based; conditions: DU145, 4 days, crystal violet, read-out: Inhibition of DU145 cell proliferation IC50
Method: as §2

Row | Structure (SMILES) | pIC50 [1] | pIC50 ([2]; Homo sapiens, 96 h) | pIC50 [3] | Selectivity CDK9/CDK2 [3] | pIC50 ([4]; Homo sapiens, A2780, 96 h) | pIC50 ([5]; Homo sapiens, NCI-H460, 96 h) | pIC50 ([6]; Homo sapiens, DU-145, 96 h) | pIC50 [2] | pIC50 [4] | pIC50 [5] | pIC50 [6]
1 | CS(=O)(Cc1cc(Nc2ncc(F)c(-c3ccc(F)cc3F)n2)cc(C(F)(F)F)c1)=NC#N (racemic) [Example 1, (rac)-{[3-{[4-(2,4-Difluorophenyl)-5-fluoropyrimidin-2-yl]amino}-5-(trifluoromethyl)benzyl](methyl)oxido-λ^6-sulfanylidene}cyanamide] | 5.85 | 6.36 | 7.89 | 105 | – | – | – | – | – | – | –
2 | CS(=O)(Cc1cc(Nc2ncc(F)c(-c3ccc(F)cc3F)n2)cc(S(F)(F)(F)(F)F)c1)=NC#N (racemic) [Example 28, (rac)-{[3-{[4-(2,4-Difluorophenyl)-5-fluoropyrimidin-2-yl]amino}-5-(pentafluoro-λ^6-sulfanyl)benzyl](methyl)oxido-λ^6-sulfanylidene}cyanamide] | 5.89 | 6.58 | 8.22 | 210 | 6.73 | 6.44 | 6.51 | – | – | – | –
3 | CS(=O)(Cc1cc(Nc2ncc(F)c(-c3ccc(F)cc3F)n2)cc(C(F)(F)F)c1)=NC#N (single isomer, unassigned) [Example 3, {[3-{[4-(2,4-Difluorophenyl)-5-fluoropyrimidin-2-yl]amino}-5-(trifluoromethyl)benzyl](methyl)oxido-λ^6-sulfanylidene}cyanamide] | 5.89 | – | 8.10 | 170 | – | – | – | 6.23 | 6.59 | 6.47 | 6.43
4 | CS(=N)(=O)Cc1cc(Nc2ncc(F)c(-c3ccc(F)cc3F)n2)cc(S(F)(F)(F)(F)F)c1 (single isomer, unassigned) [Example 32, 4-(2,4-Difluorophenyl)-5-fluoro-N-{3-[(S-methylsulfonimidoyl)methyl]-5-(pentafluoro-λ^6-sulfanyl)phenyl}pyrimidin-2-amine] | 5.80 | – | 8.22 | 263 | – | 6.32 | 6.40 | 6.48 | 6.57 | – | –
5 | CS(=O)(Cc1cc(Nc2ncc(F)c(-c3ccc(F)cc3F)n2)cc(S(F)(F)(F)(F)F)c1)=NC(N)=O (single isomer, unassigned) [Example 33, 1-{[3-{[4-(2,4-Difluorophenyl)-5-fluoropyrimidin-2-yl]amino}-5-(pentafluoro-λ^6-sulfanyl)benzyl](methyl)oxido-λ^6-sulfanylidene}urea] | 5.80 | 6.56 | 7.80 | 98 | – | – | – | – | 6.61 | 6.17 | 6.29

Molecules with a higher pIC50 [1], results first:

Row | pIC50 [1] | pIC50 ([2]; Homo sapiens, 96 h) | pIC50 [3] | Selectivity CDK9/CDK2 [3] | pIC50 ([4]; Homo sapiens, A2780, 96 h) | pIC50 ([5]; Homo sapiens, NCI-H460, 96 h) | pIC50 ([6]; Homo sapiens, DU-145, 96 h) | pIC50 [2] | pIC50 [4] | pIC50 [5] | pIC50 [6] | Structure (SMILES)
6 | 6.06 | 6.02 | 8.00 | 88 | – | – | – | – | – | – | – | CS(=N)(=O)Cc1cc(Nc2ncc(F)c(-c3ccc(F)cc3F)n2)cc(C(F)(F)F)c1 (racemic) [Example 4, (rac)-4-(2,4-Difluorophenyl)-5-fluoro-N-{3-[(S-methylsulfonimidoyl)methyl]-5-(trifluoromethyl)phenyl}pyrimidin-2-amine]
7 | 5.96 | 6.33 | 7.92 | 98 | – | – | – | – | – | – | – | CS(=O)(Cc1cc(Nc2ncc(F)c(-c3ccc(F)cc3F)n2)cc(C(F)(F)F)c1)=NC(N)=O (racemic) [Example 7, (rac)-1-{[3-{[4-(2,4-Difluorophenyl)-5-fluoropyrimidin-2-yl]amino}-5-(trifluoromethyl)benzyl](methyl)oxido-λ^6-sulfanylidene}urea]
8 | 6.20 | 5.66 | 7.62 | 26 | 6.96 | – | – | – | – | – | – | CS(=N)(=O)Cc1cc(Cl)cc(Nc2ncc(F)c(-c3ccc(F)cc3F)n2)c1 (racemic) [Example 15, (rac)-N-{3-chloro-5-[(S-methylsulfonimidoyl)methyl]phenyl}-4-(2,4-difluorophenyl)-5-fluoropyrimidin-2-amine]
9 | 5.92 | 6.46 | 8.15 | 166 | 6.89 | 6.44 | 6.51 | – | – | – | – | CS(=O)(Cc1cc(Nc2ncc(F)c(-c3ccc(F)cc3F)n2)cc(C(F)(F)F)c1)=NC#N (single isomer, unassigned) [Example 2, {[3-{[4-(2,4-Difluorophenyl)-5-fluoropyrimidin-2-yl]amino}-5-(trifluoromethyl)benzyl](methyl)oxido-λ^6-sulfanylidene}cyanamide]
10 | 6.43 | – | 8.40 | 88 | – | 6.46 | 6.60 | 6.54 | 6.01 | – | – | CS(=O)(Cc1cc(Nc2ncc(F)c(-c3ccc(F)cc3F)n2)cc(C(F)(F)F)c1)=NC(N)=O (single isomer, unassigned) [Example 23, 1-{[3-{[4-(2,4-Difluorophenyl)-5-fluoropyrimidin-2-yl]amino}-5-(trifluoromethyl)benzyl](methyl)oxido-λ^6-sulfanylidene}urea]
